Test results as given in patent US20250092058A1 (priority 2018, published 2025).

Legend:
A549 = type: cell-based, human; conditions: Table 13; MTT; A549 lung cancer
HCT116 = type: cell-based, human; conditions: Table 13; MTT; HCT116 colorectal cancer
PANC1 and Mia2 cells = assay: Western blots of caspase-3 activation and PARP cleavage; type: cell-based, human; conditions: 24 h, 10-500 nM
Experimental: Western blotting/Immunoblotting. […] Fifty μg total protein from each sample were heated at 95° C. for 5 minutes after mixing with equal volume of 2×SDS loading buffer. Samples were separated on 12-15% SDS-polyacrylamide gel electrophoresis (SDS-PAGE) gels and electrotransferred to Pure Nitrocellulose Membranes (Bio-Rad, Hercules, CA). […] Next, the membrane was incubated with different primary antibodies in TBS-T containing 5% BSA overnight at 4° C. in the range of dilutions from 1:500 to 1:2000. After washing with TBS-T, the membrane was incubated in TBS-T buffer containing 5% skim milk and corresponding secondary antibody (1:5000) for 45-60 minutes at room temperature with shaking. Protein of interest was detected using Western Lightning Plus—ECL (Perkin Elmer, Waltham, MA) and visualized by various times (3-120 seconds) of exposure. Actin was detected as the internal control to normalize total protein loading for each sample.
Next, we determined whether FL118-mediated inhibition of antiapoptotic proteins and induction of pro-apoptotic proteins shown in FIG. 1 would be accompanied by induction of apoptosis and cell killing.

PANC1-GFPcODC cells = assay: Trypan blue exclusion, PANC1-GFPcODC cells; type: cell-based, human; conditions: 4-day treatment; 20 μM cisplatin, 10 nM FL118, or both
Excerpt: Generation of A2780-GFPcODC, A2780CP-GFPcODC and PANC1GFPcODC cells and fluorescence microscopy to detect stem-like and drug resistant green cells. The retroviral expression vector pQCXIN-ZsGreen-cODC (ornithine decarboxylase), containing a green fluorescence marker, was kindly provided by Dr. Frank Pajonk (Vlashi E, et al., In vivo imaging, tracking, and targeting of cancer stem cells. J Natl Cancer Inst. 2009; 101: 350-9). The retroviral particles collected from packaging cells that transfected with the above vector were infected into A2780, A2780CP and PANC1 cells, respectively. The transfected cell pool was used for experiments. […] Cell images were acquired digitally using the Olympus IX73 Inverted Score s (Olympus). Percentages of living cells were obtained from the average of the total cells counted from 10 microscopic fields.
Next, we applied the same system to generate pancreatic cancer PANC1-GFPcODC cells.

[1] = tested on: CD44 stem cell marker-positive PANC1 cells; assay: CD44-positive PANC1 colony formation; type: cell-based, human
Experimental: CD44 positive cell sorting and CD44-positive cell colony formation. CD44 positive (CD44+) cells were purified (sorted out) using fluorescence activated cell sorting (FACS). FITC-conjugated mouse anti-human CD44 was used in FACS purification of CD44+ PANC1 cells. Briefly, PANC1 cells were harvested by using 0.25% trypsin/0.02% EDTA. After re-suspension of the cells in cell-culture media, the cells were counted and washed in PBS with 2% FBS and collected by centrifugation. Add 10 μL FITC-CD44 antibody to 1 ml PBS containing 1 million cells and 2% of FBS for 30 minutes on ice. Following the antibody labeling, PANC1 cells were washed in PBS with 2% BSA before flow cytometric analysis was carried out on a BD FACSAria™ III cell sorter (BD Science, USA). […] Colonies were fixed, stained with crystal violet solution and images were taken before counting colonies on day 12. The experimental results were expressed as the mean±SD. The statistical significance of differences was determined by Student's t-test between two groups.
To further confirm these findings, we alternatively used the typical matrigel-based CSC sphere formation assay which is know to more closely mimic in vivo situations. In this assay only drug resistant stem-like cancer cells are able to form spheres. […] We performed colony formation of CD44 stem cell marker-positive cells using the stem-cell culture condition. […]

PANC1 cells = assay: Matrigel CSC sphere formation; type: cell-based, human; conditions: 1, 10 and 100 nM, 20 days
Experimental: Matrigel stem cell cultural assay. […] Spheres were maintained in Improved MEM containing 20 ng/ml epidermal growth factor, 10 ng/ml basic fibroblast growth factor, […] insulin and 0.4% Bovine Serum Albumin. PANC1cells were plated at a density of 1000 cells/well in 24-well ultralow attachment plates (Sigma-Aldrich). Briefly, 1000 PANC1 cells were suspended in […] medium and mixed thoroughly with […] BD Matrigel™ (BD Bioscience, San Jose, CA, USA). […] Upon solidification, FL118 treatment was administered. Spheres in each well were set in the plate to grow for 20 days and then quantitated visually under a microscope at the magnification of 10×.
To further confirm these findings, we alternatively used the typical matrigel-based CSC sphere formation assay which is know to more closely mimic in vivo situations. In this assay only drug resistant stem-like cancer cells are able to form spheres. […] We performed colony formation of CD44 stem cell marker-positive cells using the stem-cell culture condition. […] Thus, the GFPcODC-positive cell model may be an extremely drug resistant cell model or a less actual cell mimic system after transfection of the GFPcODC-expressing vector and selection process for obtaining GFPcODC-expressing cells, which may not fully mimic the CD44 stem cell marker-positive drug resistant cells. […]

PDX14244 = assay: Pancreatic cancer PDX14244 in SCID mice; type: in vivo; conditions: 5 mg/kg ip qw×4
Experimental: (§1) Human pancreatic cancer patient-derived xenograft (PDX) tumor mouse model and treatment. Experiments followed the IACUC-approved mouse protocol. Briefly, human PDAC PDX tumors maintained on SCID mice were isolated, and a piece of non-necrotic tumor tissues (30-40 mg) were subcutaneously transplanted into the flank area of female SCID mice. […] In this study, we used the timesaving intraperitoneal (ip) route for drug administration. […] The formulation process was described in detail in our previous patent (PCT/US2011/058558). […] Tumor length (L) and width (W) were measured using digital vernier calipers 1-3 times per week until the end of experimental studies. The tumor volume (v) was calculated using the formula: v=0.5 (L×W^2). Then the tumor size was divided by the day 0 tumor size as percentage tumor size versus day 0. The mean tumor volume ± standard deviation (SD) at each time point was derived from 5 mice in each group. The tumor curves were made using Sigma Plot software.
(§2) It has been recently documented that pancreatic cancer PDXs retain active paracrine/Hedgehog signaling, and desmoplasia is active in PDX tumor mouse models.

PDX17624 = assay: Pancreatic cancer PDX17624 in SCID mice; type: in vivo; conditions: 5 mg/kg ip qw×4
Experimental: as §1, §2

ABCG2 and Pgp = assay: Efflux transporter substrate studies; type: in vitro ADME
[2] = calculated from SCID mouse MTD
[3] = Oral PK in SW620/HT29 tumor-bearing SCID mice; conditions: 1.5 mg/kg oral, HPβCD aqueous suspension
Experimental: Tumor tissues and blood samples were collected at a series of time points of 30 minutes, 1 hour, 4 hours, 12 hours and 24 hours. Each tumor tissue was collected in a tube and immediately frozen with liquid nitrogen; each blood sample was collected in a Li-Heparin LH/1.3 tube ([sequence]), and plasma was recovered by centrifugation (1500 rpm×2 minutes). The collected plasma from each blood sample was transferred into a new tube and immediately frozen in liquid nitrogen. Liquid nitrogen-frozen specimens were then transferred to an −80° C. freezer for analysis.
Drug in plasma is extracted with acidified methanol. An 800 μL aliquot of ice-cold acidified methanol is added to 200 μL plasma and vortexed for 15 sec. […] An 800 μL aliquot of ice-cold acidified methanol is added to 200 μL homogenized tissue and then vortexed for 1 min. The samples are then centrifuged at 13,000 rpm for 5 min. and the supernatant is transferred to a clean 13×100 mm glass tube. Samples are dried under vacuum and stored at −20° C. until analysis. […] Analysis is carried out using an Acquity UPLC system with Fluorescence detection interfaced with Empower software. […] The fluorescence detector is set at the following Excitation (Ex) and Emissions (Em) wavelengths: Ex 370 nm Em 510 nm. […] QC samples are analyzed with each curve.

SMILES: CC[C@@]1(O)C(=O)OCc2c1cc1n(c2=O)Cc2cc3cc4c(cc3nc2-1)OCO4 [FL118, 10,11-methylenedioxy-camptothecin]
- IC50 (A549): 81.8 ± 14 nM
- IC50 (HCT116): 66.5 ± 11.2 nM
- caspase-3 activation and PARP cleavage (PANC1 and Mia2 cells): strongly induces caspase-3 activation and PARP cleavage
- cell death (PANC1-GFPcODC cells): ~18%
- colony formation ([1]; 1 nM): significantly inhibited colony formation
- colony formation ([1]; 10 and 100 nM): completely eliminate colony formation
- sphere formation (PANC1 cells): high efficacy in inhibiting sphere formation
- antitumor efficacy (PDX14244): able to eliminate these PDX tumors after one cycle of treatment
- antitumor efficacy (PDX17624): able to eliminate these PDX tumors after one cycle of treatment
- substrate of ABCG2 and Pgp (ABCG2 and Pgp): not a substrate of ABCG2 and Pgp
- calculated FL118 MTD for dogs [2]: 2 mg/kg
- concentration in tumor versus serum [3]: many folds higher than those in serum
